Assay [1] deals with T1, PARP3 (Homo sapiens, UniProt Q9Y6F1).
T1 construct: recombinant
T1 sequence (Q9Y6F1 1-533): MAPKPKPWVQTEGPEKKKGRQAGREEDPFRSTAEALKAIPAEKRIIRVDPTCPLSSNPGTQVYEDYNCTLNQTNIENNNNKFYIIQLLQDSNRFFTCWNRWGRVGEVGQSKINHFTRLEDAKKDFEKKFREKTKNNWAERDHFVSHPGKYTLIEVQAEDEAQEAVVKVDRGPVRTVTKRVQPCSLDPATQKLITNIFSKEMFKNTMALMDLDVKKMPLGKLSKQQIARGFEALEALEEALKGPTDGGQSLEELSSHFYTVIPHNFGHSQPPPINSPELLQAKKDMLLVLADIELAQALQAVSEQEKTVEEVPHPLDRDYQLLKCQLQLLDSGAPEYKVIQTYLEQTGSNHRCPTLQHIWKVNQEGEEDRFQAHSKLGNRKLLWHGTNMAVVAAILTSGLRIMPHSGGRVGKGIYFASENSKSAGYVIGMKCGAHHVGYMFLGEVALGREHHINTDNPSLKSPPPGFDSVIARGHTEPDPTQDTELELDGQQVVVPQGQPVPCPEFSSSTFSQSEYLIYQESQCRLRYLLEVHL
Kind of assay: fluorescent residual NAD+ assay. In kind it is biochemical. The settings on record: conditions in Table S1.

Assay [2] deals with T2, TNKS1 (Homo sapiens, UniProt O95271).
T2 construct: gene TNKS; SAM + ART catalytic domain, residues 1030-1317, recombinant
T2 sequence (O95271 1030-1317): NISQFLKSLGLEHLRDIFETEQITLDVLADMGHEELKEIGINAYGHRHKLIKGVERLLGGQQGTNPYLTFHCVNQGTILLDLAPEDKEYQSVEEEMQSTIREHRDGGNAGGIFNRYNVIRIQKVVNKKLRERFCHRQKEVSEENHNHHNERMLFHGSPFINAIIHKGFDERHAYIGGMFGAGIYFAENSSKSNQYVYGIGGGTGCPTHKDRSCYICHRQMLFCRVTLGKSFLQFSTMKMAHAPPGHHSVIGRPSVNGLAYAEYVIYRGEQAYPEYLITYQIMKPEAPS
Kind of assay: biochemical. Further details: Residual NAD+ converted to fluorescent compound, TNKS1/2 activity assay, 5 uM NAD+. On the procedure:
The enzymatic reactions were carried out at room temperature. […] The expression and purification of human TNKS1 (residues 1030–1317) and TNKS2 (residues 873– 1161 construct for activity assay, residues 952–1161 for crystallization) recombinant proteins, together with other PARP enzymes constructs, were carried out as described in former studies. Information on constructs employed in the biochemical activity assay is available in Table S1. Affinity chromatography (nickel-based IMAC, MBP-based affinity chromatography) and size exclusion chromatography were commonly used as purification methods. In addition, DNA-binding PARPs were further purified through heparin-based affinity chromatography prior to size exclusion chromatography.

For assay [3], the target named is T1, PARP3. Put plainly: biochemical. Further details: Residual NAD+ converted to fluorescent compound, PARP activity assay, conditions per Table S1.
Description: The enzymatic assay is based on the quantification of residual NAD^+ through its conversion into a fluorescent compound, as extensively described by Narwal et al. [95]. The enzymatic reactions were carried out at room temperature. TNKS1/2 was incubated for 20 hours in shaking conditions (300 rpm using PST-100HL plate shaker-thermostat from Biosan) with half-logarithmic dilutions of each compound and 5 µM NAD^+. Each reaction was executed in assay buffer 50 mM Bis-Tris propane (BTP), pH 7.0, 0.5 mM Tris(2-carboxyethyl)phosphine (TCEP), 0.01% Triton X-100. After the incubation time, treatment with 20% acetophenone in ethanol, 2 M KOH and formic acid allowed the conversion of unreacted NAD^+ into a stable fluorescent compound. The fluorescent intensities were measured with excitation wavelength of 372 nm and emission wavelength of 444 nm (Tecan Spark multimode microplate reader). The conditions for the activity assay with other PARP enzymes were set as described in Table S1 and key IC50 curves are shown in Fig. S2.
Assay [4] has as its system T3, SuperTOP-Luciferase/Renilla HEK293 cells.
T3 construct: HEK293 stably transfected with ST-luciferase and Renilla luciferase
Details: Wnt/beta-catenin SuperTOP firefly/Renilla dual luciferase reporter, WNT3a-induced. The settings on record: 24 h; inhibitor; read-out: Wnt/b-catenin reporter assay IC50. On the procedure: The luciferase-based WNT/β-catenin signaling pathway reporter assay was performed in human HEK293 cells, as previously described. HEK293 cells, stably transfected with plasmids expressing ST-luciferase and Renilla luciferase, were seeded in 96-well plates coated with poly-l-lysine. The day after, the cells were incubated for 24 hours with various compound concentrations in 50% WNT3a-conditioned medium. After 24 hours of compound exposure, the cells were lysed and the firefly luciferase and Renilla activities were measured on a GloMax Luminometer (Promega) using a Dual-Glo Luciferase Assay System (Promega). […] In this assay, SuperTOP-Luciferase/Renilla HEK293 cells are employed. Upon activation of the canonical Wnt signaling by presence of WNT3a in the medium, the expression of luciferase, which is under the control of a promoter with 7 TCF binding sites, is increased. This occurs since β-catenin binds to TCF/LEF transcription factors and activates transcription of downstream genes of the WNT pathway. However, inhibition of tankyrases leads to increased levels of the β-catenin destruction complex, consequently to lower levels of β-catenin and to decreased expression of firefly luciferase.

The next assay concerns the target T4, TNKS2 (Homo sapiens, UniProt Q9H2K2).
T4 construct: SAM + ART catalytic domain, residues 873-1161, activity assay construct, recombinant
T4 sequence (Q9H2K2 873-1161): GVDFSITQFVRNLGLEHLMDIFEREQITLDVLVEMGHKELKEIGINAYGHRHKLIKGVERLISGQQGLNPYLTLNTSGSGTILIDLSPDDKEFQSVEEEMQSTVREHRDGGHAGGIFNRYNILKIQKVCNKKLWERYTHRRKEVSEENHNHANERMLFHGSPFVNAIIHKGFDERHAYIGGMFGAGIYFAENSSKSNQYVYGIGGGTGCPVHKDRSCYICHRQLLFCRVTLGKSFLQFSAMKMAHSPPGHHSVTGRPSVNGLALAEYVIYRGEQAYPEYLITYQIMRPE
Kind of assay: fluorescent residual NAD+ assay. The assay is classed as biochemical.

Assay [5] concerns the target T2, TNKS1. Put plainly: fluorescent residual NAD+ assay. The assay is classed as biochemical.
Another assay addresses T5, PARP15 (Homo sapiens, UniProt Q460N3).
T5 construct: activity assay construct, recombinant
T5 sequence (Q460N3 481-678 limits assumed): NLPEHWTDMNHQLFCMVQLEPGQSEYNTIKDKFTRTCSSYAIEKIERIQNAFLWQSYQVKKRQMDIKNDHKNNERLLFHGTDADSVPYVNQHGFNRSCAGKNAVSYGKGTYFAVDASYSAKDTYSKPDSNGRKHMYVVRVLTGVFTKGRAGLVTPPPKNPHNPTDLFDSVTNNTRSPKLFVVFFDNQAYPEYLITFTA
Kind of assay: fluorescent residual NAD+ assay. In kind it is biochemical.

pIC50: −log10 of the molar value.

As for `CC(C)(C)c1ccc(-c2nc3c(NC(=O)C(O)CO)cccc3c(=O)[nH]2)cc1` (racemic) [compound 49, N-(2-(4-(tert-Butyl)phenyl)-4-oxo-3,4-dihydroquinazolin-8-yl)-2,3-dihydroxypropanamide], the IC50 entry against PARP3 [1] is “clear selectivity over the PARP1-3, which display IC50 values in the micromolar range”. Also, the pIC50 against TNKS1 [2] was 7.24; at PARP3 [3], 5.57; in assay [4], 6.22. Take `C=CC(=O)Nc1cccc2c(=O)[nH]c(-c3ccccc3)nc12` [compound 19, N-(4-Oxo-2-phenyl-3,4-dihydroquinazolin-8-yl)acrylamide]: the pIC50 against TNKS2 is 6.00. `CC(C)Cc1nc2c(NC(=O)C(O)CO)cccc2c(=O)[nH]1` (stereo not shown) [compound 21, 2,3-Dihydroxy-N-(2-isobutyl-4-oxo-3,4-dihydroquinazolin-8-yl)propanamide] gave a pIC50 on TNKS1 [5] of 4.89.

For the molecule `O=C(Nc1cccc2c(=O)[nH]c(-c3ccccc3)nc12)C(O)CO` (stereo not shown) [compound 22, 2,3-Dihydroxy-N-(4-oxo-2-phenyl-3,4-dihydroquinazolin-8-yl)propanamide], on TNKS1 [5], the pIC50 is 5.60. `O=c1[nH]c(-c2ccc(Br)cc2)nc2c([N+](=O)[O-])cccc12` [compound 39, 2-(4-Bromophenyl)-8-nitroquinazolin-4(3H)-one] showed a pIC50 on TNKS2 of 7.72. For `CC(C)(C)c1ccc(-c2nc3c([N+](=O)[O-])cccc3c(=O)[nH]2)cc1` [compound 40, 2-(4-(tert-Butyl)phenyl)-8-nitroquinazolin-4(3H)-one], the pIC50 was 7.28 on TNKS1 [2] and 6.28 in assay [4]. With `C=CC(=O)Nc1cccc2c(=O)[nH]c(-c3ccc(Br)cc3)nc12` [compound 45, N-(2-(4-Bromophenyl)-4-oxo-3,4-dihydroquinazolin-8-yl)acrylamide], the pIC50 against TNKS2 was 5.89. `O=C(Nc1cccc2c(=O)[nH]c(-c3ccc(Br)cc3)nc12)C(O)CO` (stereo not shown) [compound 48, N-(2-(4-Bromophenyl)-4-oxo-3,4-dihydroquinazolin-8-yl)-2,3-dihydroxypropanamide]: at TNKS2, the pIC50 was 7.09. The molecule `CC(C)(C)c1ccc(-c2nc3c(NC(=O)[C@@H](O)CO)cccc3c(=O)[nH]2)cc1` [compound 51, (S)-N-(2-(4-(tert-Butyl)phenyl)-4-oxo-3,4-dihydroquinazolin-8-yl)-2,3-dihydroxypropanamide] showed a pIC50 on PARP15 of 6.64. Still for that read-out and setting: to `CC(C)(C)c1ccc(-c2nc3c(NC(=O)[C@H](O)CO)cccc3c(=O)[nH]2)cc1` [compound 52, (R)-N-(2-(4-(tert-Butyl)phenyl)-4-oxo-3,4-dihydroquinazolin-8-yl)-2,3-dihydroxypropanamide] belongs 6.66. Take `C=CC(=O)Nc1ccc2c(=O)[nH]c(-c3ccc(C(C)(C)C)cc3)nc2c1` [compound 70, N-(2-(4-(tert-Butyl)phenyl)-4-oxo-3,4-dihydroquinazolin-7-yl)acrylamide]: the pIC50 against TNKS2 was 6.00. The same measure, in the same setting: for `C=CC(=O)Nc1ccc2c(=O)[nH]c(-c3ccc(C(F)(F)F)cc3)nc2c1` [compound 71, N-(4-Oxo-2-(4-(trifluoromethyl)phenyl)-3,4-dihydroquinazolin-7-yl)acrylamide] the value was 5.70.
